Read-outs that look alike come from different tables or passages of the source.

The record followed here is publication PMC10692721, “Drug discovery for heart failure targeting myosin-binding protein C” (The Journal of Biological Chemistry, 2023).

In assay [1] the test system is FMAL-actin plus TMR-cC0-C2. In words: Selleck library HTS, 473 nm excitation (FLT of FMAL-actin with TMR-cC0-C2, FLT-FRET). As to conditions: for 473-nm Δτ, Repeat 1 / 473-nm Δτ, Repeat 2: initial screen, 30 μM compound; for 473-nm z-score (based on avg Δτ): robust z-score, hit threshold ±4, 30 μM compound. Type of assay: binding, human. The method, boiled down: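 Donor fluorescence lifetime was then recorded. Waveforms were fit to a single exponential, and ΔFLT was obtained after a moving-median plate-gradient correction (half-row window), rescaled by the median DMSO lifetime.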

Assay [2] has as its system TMR-cC0-C2. In words: Selleck library HTS, 532 nm excitation (FLT of TMR-cC0-C2 in presence of FMAL-actin). The following applies: for 532-nm Δτ, Repeat 1 / 532-nm Δτ, Repeat 2: initial screen, 30 μM compound; for 532-nm z-score (based on avg Δτ): robust z-score, hit threshold ±4, 30 μM compound. The assay is classed as binding, human.
Assay [3] relates to FMAL-actin/PKA-phosphorylated TMR-cC0-C2 interaction. Kind of assay: FLT-FRET concentration-response assay, FMAL-actin plus PKA-phosphorylated TMR-cC0-C2. Type of assay: binding, human. Here is the method: (§1) Compounds identified as initial hits were further examined to determine the concentration–response curves for seven conditions ([1]): FMAL-actin alone identified actin-binding compounds that alter the FLT of FMAL-actin ([2]).
(§2) Fluorescence lifetime (FLT) measurements were acquired using a high-throughput FLT plate reader (Fluorescence Innovations, Inc) ([14], [27]), provided by Photonic Pharma LLC. […] The observed waveforms were analyzed as described previously ([15], [28]).
(§3) The primary hits were dissolved in DMSO to make a 10 mM stock solution, which was serially diluted in 96-well mother plates. Hits were screened at eight concentrations (0.5–100 μM). […] Compounds (1 μl) were transferred from the mother plates into 384-well plates using a Mosquito HV liquid handler (TTP Labtech Ltd, Hertfordshire, UK). The same procedure of dispensing as for the pilot screening was applied in the concentration-response assays. Concentration dependence of the FLT-FRET (E/EDMSO) or FLT-TMR (Δτ) change data was fit to a Hill equation only under certain conditions to help guide the eye (Fig. 4).

Assay [4] has as its system FMAL-actin/TMR-cC0-C2 interaction. In words: FLT-FRET concentration-response assay, FMAL-actin plus TMR-cC0-C2. The following applies: for specificity of FLT-FRET effect for unphosphorylated over phosphorylated cC0-C2: effect on cC0-C2 compared to phosphorylated cC0-C2 (Tables 1 and 2); for effect on FLT-FRET / binding between FMAL-actin and TMR-cC0-C2 (in words): unphosphorylated cC0-C2. Type of assay: binding, human. The method, boiled down: (§4)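 Hits tested at eight concentrations (0.5–100 μM) and read on a high-throughput fluorescence lifetime plate reader. Hill fits applied only under certain conditions.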

For assay [5], the system named is PKA-phosphorylated TMR-cC0-C2 (cC0-C2#P). In words: FLT-TMR concentration-response assay, PKA-phosphorylated cC0-C2. As to conditions: for cC0-C2#P FLT change (% change from DMSO, FLT of TMR-MyBP-C): 60 μM compound; for effect on FLT of PKA-phosphorylated TMR-cC0-C2 (in words): concentration-response, no actin. Type of assay: binding, human. The method, boiled down:
as §4

The subject of assay [6] is TMR-cC0-C2 (C0-C2 fragment of human cMyBP-C). Kind of assay: FLT-TMR concentration-response assay (FLT of TMR on cC0-C2, no actin). The assay is classed as binding. The following applies: for cC0-C2/cC0-C2#P (ratio of FLT changes) / cC0-C2 FLT change (% change from DMSO, FLT of TMR-MyBP-C): 60 μM compound; for effect on FLT of TMR-cC0-C2 (in words): concentration-response, no actin; for difference in effect on TMR FLT between unphosphorylated and phosphorylated TMR-cC0-C2: from Table 3. The method, boiled down:
as §4

The test system of assay [7] is FMAL-actin/TMR-fC1-C2 interaction. Kind of assay: FLT-FRET concentration-response assay, FMAL-actin plus TMR-fC1-C2. The assay is classed as binding. Here is the method: as §1, §2, §3
Assay [8] deals with TMR-fC1-C2 (C1-C2 of fast skeletal MyBP-C). In words: FLT-TMR concentration-response assay, fC1-C2. Type of assay: binding. As to conditions: for cC0-C2/fC1-C2 (ratio of FLT changes) / fC1-C2 FLT change (% change from DMSO, FLT of TMR-MyBP-C): 60 μM compound; for difference in effect on TMR FLT between unphosphorylated TMR-cC0-C2 and TMR-fC1-C2: from Table 3; for effect on FLT of TMR-fC1-C2 (in words): concentration-response, no actin. The method, boiled down:
as §4

With `COc1cc(Nc2ncc(F)c(Nc3ccc4c(n3)N(COP(=O)(O)O)C(=O)C(C)(C)O4)n2)cc(OC)c1OC` [Fostamatinib (R788), Fostamatinib], in assay [1], the “473-nm Δτ, Repeat 1” value is reported as 0.110 ns; the “473-nm Δτ, Repeat 2” value was 0.046 ns; the “473-nm z-score (based on avg Δτ)” value was found to be 4.40. Also, in assay [2], the “532-nm Δτ, Repeat 1” value is reported as -0.027 ns; the “532-nm Δτ, Repeat 2” value is -0.063 ns; the “532-nm z-score (based on avg Δτ)” value was -2.72. Moreover, the “effect on FLT-FRET / binding between FMAL-actin and PKA-phosphorylated TMR-cC0-C2 (in words)” value in assay [3] is “decreased”. Moreover, in assay [4], the “specificity of FLT-FRET effect for unphosphorylated over phosphorylated cC0-C2” value is reported as 5 fold; the “effect on FLT-FRET / binding between FMAL-actin and TMR-cC0-C2 (in words)” value was “decreased”. In assay [5], the “cC0-C2#P FLT change (% change from DMSO, FLT of TMR-MyBP-C)” value is given as 0.7%. Further, in assay [6], the “cC0-C2/cC0-C2#P (ratio of FLT changes)” value is 3.3; the “cC0-C2 FLT change (% change from DMSO, FLT of TMR-MyBP-C)” value worked out at 2.3%; the “effect on FLT of TMR-cC0-C2 (in words)” value is “affect”; the “difference in effect on TMR FLT between unphosphorylated and phosphorylated TMR-cC0-C2” value is 3.3 fold. The “effect on FLT-FRET / binding between FMAL-actin and TMR-fC1-C2 (in words)” value in assay [7] is given as “decreased”. In assay [8], the “cC0-C2/fC1-C2 (ratio of FLT changes)” value came out at 5.8; the “fC1-C2 FLT change (% change from DMSO, FLT of TMR-MyBP-C)” value was found to be 0.4%; the “difference in effect on TMR FLT between unphosphorylated TMR-cC0-C2 and TMR-fC1-C2” value stood at 5.8 fold.

As for `Clc1ccc(C(Cn2ccnc2)OCc2ccc(Sc3ccccc3)cc2)c(Cl)c1` (stereo not shown) [Fenticonazole nitrate], in assay [1], the “473-nm Δτ, Repeat 1” value is reported as -0.069 ns; the “473-nm Δτ, Repeat 2” value is given as -0.104 ns; the “473-nm z-score (based on avg Δτ)” value was -4.80. Also, in assay [2], the “532-nm Δτ, Repeat 1” value was -0.011 ns; the “532-nm Δτ, Repeat 2” value is given as -0.035 ns; the “532-nm z-score (based on avg Δτ)” value is -1.35. Moreover, in assay [3], the “preference for increasing the binding of phosphorylated over unphosphorylated cC0-C2 (FLT-FRET)” value amounted to 5 fold; the “effect on FLT-FRET / binding between FMAL-actin and PKA-phosphorylated TMR-cC0-C2 (in words)” value was “increases”. In assay [4], the “effect on FLT-FRET / binding between FMAL-actin and TMR-cC0-C2 (in words)” value is reported as “does not have any effect”. Besides, in assay [5], the “cC0-C2#P FLT change (% change from DMSO, FLT of TMR-MyBP-C)” value is recorded as −6.0% and the “effect on FLT of PKA-phosphorylated TMR-cC0-C2 (in words)” value is on record as “slightly decreases”. Further, in assay [6], the “cC0-C2/cC0-C2#P (ratio of FLT changes)” value is given as 0.8; the “cC0-C2 FLT change (% change from DMSO, FLT of TMR-MyBP-C)” value is listed as −4.7%; the “effect on FLT of TMR-cC0-C2 (in words)” value was “slightly decreases”. Moreover, in assay [7], the “effect on FLT-FRET / binding between FMAL-actin and TMR-fC1-C2 (in words)” value is listed as “does not have any effect”. Besides, in assay [8], the “cC0-C2/fC1-C2 (ratio of FLT changes)” value worked out at 11.8; the “fC1-C2 FLT change (% change from DMSO, FLT of TMR-MyBP-C)” value is recorded as 0.4%; the “effect on FLT of TMR-fC1-C2 (in words)” value is “does not affect”; the “difference in effect on TMR FLT between unphosphorylated TMR-cC0-C2 and TMR-fC1-C2” value amounted to 11.8 fold.

With `CCC(=O)O[C@H]1[C@H](O[C@@H]2[C@@H](C)[C@H](O[C@H]3C[C@@](C)(OC)[C@@H](O)[C@H](C)O3)[C@@H](C)C(=O)O[C@H](CC)[C@@](C)(O)[C@H](O)[C@@H](C)C(=O)[C@H](C)C[C@@]2(C)O)O[C@H](C)C[C@@H]1N(C)C` [Erythromycin estolate], in assay [1], the “473-nm Δτ, Repeat 1” value was determined as 0.149 ns; the “473-nm Δτ, Repeat 2” value was 0.101 ns; the “473-nm z-score (based on avg Δτ)” value is given as 7.01. Moreover, in assay [2], the “532-nm Δτ, Repeat 1” value came out at 0.002 ns; the “532-nm Δτ, Repeat 2” value is recorded as -0.031 ns; the “532-nm z-score (based on avg Δτ)” value is listed as -0.86. Further, in assay [3], the “effect on FLT-FRET / binding between FMAL-actin and PKA-phosphorylated TMR-cC0-C2 (in words)” value is on record as “decreased”. Besides, the “effect on FLT-FRET / binding between FMAL-actin and PKA-phosphorylated TMR-cC0-C2 (in words)” value in assay [3] (listed as Erthromycin estolate) was “biphasic effect”. In addition, the “effect on FLT-FRET / binding between FMAL-actin and TMR-cC0-C2 (in words)” value in assay [4] is “decreased”. In assay [4] (listed as Erthromycin estolate), the “effect on FLT-FRET / binding between FMAL-actin and TMR-cC0-C2 (in words)” value was “biphasic effect”. Besides, in assay [5], the “cC0-C2#P FLT change (% change from DMSO, FLT of TMR-MyBP-C)” value is −2.4% and the “effect on FLT of PKA-phosphorylated TMR-cC0-C2 (in words)” value is on record as “decreases”. In assay [6], the “cC0-C2/cC0-C2#P (ratio of FLT changes)” value amounted to 5.9; the “cC0-C2 FLT change (% change from DMSO, FLT of TMR-MyBP-C)” value is listed as −14.1%; the “effect on FLT of TMR-cC0-C2 (in words)” value is “affect”; the “difference in effect on TMR FLT between unphosphorylated and phosphorylated TMR-cC0-C2” value was 5.9 fold. Further, in assay [6] (listed as Erthromycin estolate), the “effect on FLT of TMR-cC0-C2 (in words)” value is reported as “decreases”. Also, the “effect on FLT-FRET / binding between FMAL-actin and TMR-fC1-C2 (in words)” value in assay [7] was “decreased”. The “effect on FLT-FRET / binding between FMAL-actin and TMR-fC1-C2 (in words)” value in assay [7] (listed as Erthromycin estolate) is listed as “biphasic effect”. Also, in assay [8], the “cC0-C2/fC1-C2 (ratio of FLT changes)” value came to 6.7; the “fC1-C2 FLT change (% change from DMSO, FLT of TMR-MyBP-C)” value was −2.1%; the “effect on FLT of TMR-fC1-C2 (in words)” value is “decreases”; the “difference in effect on TMR FLT between unphosphorylated TMR-cC0-C2 and TMR-fC1-C2” value is recorded as 6.7 fold.

As to Tocofersolan, in assay [1], the “473-nm Δτ, Repeat 1” value is -0.166 ns; the “473-nm Δτ, Repeat 2” value was -0.159 ns; the “473-nm z-score (based on avg Δτ)” value is -9.06. Moreover, in assay [2], the “532-nm Δτ, Repeat 1” value is given as 0.072 ns; the “532-nm Δτ, Repeat 2” value amounted to 0.065 ns; the “532-nm z-score (based on avg Δτ)” value came to 4.23. In addition, the “effect on FLT-FRET / binding between FMAL-actin and PKA-phosphorylated TMR-cC0-C2 (in words)” value in assay [3] was “no effect”. Also, the “fold effect on increased FRET (or binding) (Table 2)” value in assay [4] (comparison not given) is listed as “fivefold or greater”. Further, in assay [4], the “specificity of FLT-FRET effect for unphosphorylated over phosphorylated cC0-C2” value is listed as 13–54 fold; the “effect on FLT-FRET / binding between FMAL-actin and TMR-cC0-C2 (in words)” value was “affected the binding to actin”. Besides, in assay [5], the “cC0-C2#P FLT change (% change from DMSO, FLT of TMR-MyBP-C)” value is given as 3.2%. For the same compound, in assay [6], the “cC0-C2/cC0-C2#P (ratio of FLT changes)” value was found to be 1.0 and the “cC0-C2 FLT change (% change from DMSO, FLT of TMR-MyBP-C)” value was 3.3%. Further, the “effect on FLT-FRET / binding between FMAL-actin and TMR-fC1-C2 (in words)” value in assay [7] was “affected the binding to actin”. Besides, in assay [8], the “cC0-C2/fC1-C2 (ratio of FLT changes)” value was 1.2 and the “fC1-C2 FLT change (% change from DMSO, FLT of TMR-MyBP-C)” value stood at 2.8%.
